Test results taken from patent US20260078103A1, “ISOQUINOLONES AS PI3K INHIBITORS” (OnKure, Inc., priority 2022, published 2026).

What follows are compounds tested on T47D cells expressing mutant PI3Ka (H1047R) (assay: In vitro cell proliferation, T47D cells (CellTiter-Glo)). Conditions: Homo sapiens, T47D, 72 h, inhibition of proliferation, read-out: Avg T-47D EC50.
Assay type: cell-based
Summary of the method: (§1)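 1,500 cells/well seeded onto pre-stamped 10-pt dilution plates; T47D in RPMI + 10% FBS + insulin 0.2 units/mL, SKBR3 in McCoys 5a + 10% FBS. 72 h, 37 °C, 5% CO2. CTG readout. 0% = 0.1% DMSO, 100% = 10 uM Alpelisib; sigmoidal fit gives EC50.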

Row | SMILES | EC50
1 | Cc1cc([C@@H](C)Nc2ccccc2C(=O)O)c2cc(N3CCN(c4cnn(C)c4)CC3)n(C)c(=O)c2c1 [Example 220] | 1 to 500 nM
2 | Cc1cc([C@@H](C)Nc2ccccc2C(=O)O)c2cc(N3CCN(c4ccccc4F)CC3)n(C)c(=O)c2c1 [Example 221] | 1 to 500 nM
3 | Cc1cc([C@@H](C)Nc2ccccc2C(=O)O)c2cc(NCc3ccc(F)cc3)n(C)c(=O)c2c1 [Example 222] | 2000 to 15000 nM
4 | Cc1cc([C@@H](C)Nc2ccccc2C(=O)O)c2cc(-c3cnc(C)cc3C)n(C)c(=O)c2c1 [Example 223] | 500 to 2000 nM
5 | Cc1cc([C@@H](C)Nc2ccccc2C(=O)O)c2cc(-c3ccc(C(C)(C)F)nc3)n(C)c(=O)c2c1 [Example 225] | 1 to 500 nM
6 | Cc1cc([C@@H](C)Nc2ccccc2C(=O)O)c2cc(-c3ccc(C(C)C)nc3)n(C)c(=O)c2c1 [Example 226] | 1 to 500 nM
7 | Cc1cc([C@@H](C)Nc2ccccc2C(=O)O)c2cc(-c3ccc(C4CC4)nc3)n(C)c(=O)c2c1 [Example 227] | 1 to 500 nM
8 | Cc1cc([C@@H](C)Nc2ccccc2C(=O)O)c2cc(-c3ccc(C(C)(F)F)nc3)n(C)c(=O)c2c1 [Example 230] | 1 to 500 nM
9 | Cc1cc([C@@H](C)Nc2ccccc2C(=O)O)c2cc(N3CCN(c4cnn(C)n4)CC3)n(C)c(=O)c2c1 [Example 231] | 1 to 500 nM
10 | Cc1cc([C@@H](C)Nc2ccccc2C(=O)O)c2cc(N3CCN(c4ccn(C)n4)CC3)n(C)c(=O)c2c1 [Example 232] | 1 to 500 nM
11 | CNc1ccc(N2CCN(c3cc4c([C@@H](C)Nc5ccccc5C(=O)O)cc(C)cc4c(=O)n3C)CC2)cn1 [Example 233] | 1 to 500 nM
12 | COc1ncc(-c2cc3c([C@@H](C)Nc4ccccc4C(=O)O)cc(C)cc3c(=O)n2C)cn1 [Example 234] | 1 to 500 nM
13 | Cc1cc([C@@H](C)Nc2ccccc2C(=O)O)c2cc(N3CCN(c4cncnc4)CC3)n(C)c(=O)c2c1 [Example 235] | 1 to 500 nM
14 | Cc1cc([C@@H](C)Nc2ccccc2C(=O)O)c2cc(N3CCN(c4cncnc4C)CC3)n(C)c(=O)c2c1 [Example 236] | 1 to 500 nM
15 | Cc1cc([C@@H](C)Nc2ccccc2C(=O)O)c2cc(N3CCN(c4cnc(C)nc4)CC3)n(C)c(=O)c2c1 [Example 237] | 1 to 500 nM
16 | CCOc1ncc(-c2cc3c([C@@H](C)Nc4ccccc4C(=O)O)cc(C)cc3c(=O)n2C)cc1F [Example 238] | 1 to 500 nM

What follows are compounds tested on phosphorylation of AKT (pAKT) in T47D cells expressing mutant PI3Ka (H1047R) (assay: In vitro cell pAKT (Ser473) HTRF, T47D cells). Conditions: Homo sapiens, T47D, 6 h, cellular pAKT, T47D cells, mutant PI3Ka (H1047R), 6 hours; read-out: Avg T-47D IC50.
Assay type: cell-based
Summary of the method: (§2)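 pAKT (Ser473) was quantified by HTRF in lysates from cells exposed 6 h at 37 °C to 10-point compound series, with T47D in insulin-supplemented RPMI/10% FBS and SKBR3 in McCoy's 5a/10% FBS. Controls: 0.1% DMSO (high) and 10 uM alpelisib (low). IC50 from sigmoidal curve fitting.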

Row | SMILES | IC50
17 | Cc1cc([C@@H](C)Nc2ccccc2C(=O)O)c2cc(N3CCN(c4cnn(C)c4)CC3)n(C)c(=O)c2c1 [Example 220] | 1 to 500 nM
18 | Cc1cc([C@@H](C)Nc2ccccc2C(=O)O)c2cc(N3CCN(c4ccccc4F)CC3)n(C)c(=O)c2c1 [Example 221] | 1 to 500 nM
19 | Cc1cc([C@@H](C)Nc2ccccc2C(=O)O)c2cc(NCc3ccc(F)cc3)n(C)c(=O)c2c1 [Example 222] | 2000 to 15000 nM
20 | Cc1cc([C@@H](C)Nc2ccccc2C(=O)O)c2cc(-c3cnc(C)cc3C)n(C)c(=O)c2c1 [Example 223] | 1 to 500 nM
21 | Cc1cc([C@@H](C)Nc2ccccc2C(=O)O)c2cc(-c3ccc(C(C)(C)F)nc3)n(C)c(=O)c2c1 [Example 225] | 1 to 500 nM
22 | Cc1cc([C@@H](C)Nc2ccccc2C(=O)O)c2cc(-c3ccc(C(C)C)nc3)n(C)c(=O)c2c1 [Example 226] | 1 to 500 nM
23 | Cc1cc([C@@H](C)Nc2ccccc2C(=O)O)c2cc(-c3ccc(C4CC4)nc3)n(C)c(=O)c2c1 [Example 227] | 1 to 500 nM
24 | Cc1cc([C@@H](C)Nc2ccccc2C(=O)O)c2cc(-c3ccc(C(C)(F)F)nc3)n(C)c(=O)c2c1 [Example 230] | 1 to 500 nM
25 | Cc1cc([C@@H](C)Nc2ccccc2C(=O)O)c2cc(N3CCN(c4cnn(C)n4)CC3)n(C)c(=O)c2c1 [Example 231] | 1 to 500 nM
26 | Cc1cc([C@@H](C)Nc2ccccc2C(=O)O)c2cc(N3CCN(c4ccn(C)n4)CC3)n(C)c(=O)c2c1 [Example 232] | 1 to 500 nM
27 | CNc1ccc(N2CCN(c3cc4c([C@@H](C)Nc5ccccc5C(=O)O)cc(C)cc4c(=O)n3C)CC2)cn1 [Example 233] | 1 to 500 nM
28 | COc1ncc(-c2cc3c([C@@H](C)Nc4ccccc4C(=O)O)cc(C)cc3c(=O)n2C)cn1 [Example 234] | 1 to 500 nM
29 | Cc1cc([C@@H](C)Nc2ccccc2C(=O)O)c2cc(N3CCN(c4cncnc4)CC3)n(C)c(=O)c2c1 [Example 235] | 500 to 2000 nM
30 | Cc1cc([C@@H](C)Nc2ccccc2C(=O)O)c2cc(N3CCN(c4cncnc4C)CC3)n(C)c(=O)c2c1 [Example 236] | 1 to 500 nM
31 | Cc1cc([C@@H](C)Nc2ccccc2C(=O)O)c2cc(N3CCN(c4cnc(C)nc4)CC3)n(C)c(=O)c2c1 [Example 237] | 1 to 500 nM
32 | CCOc1ncc(-c2cc3c([C@@H](C)Nc4ccccc4C(=O)O)cc(C)cc3c(=O)n2C)cc1F [Example 238] | 1 to 500 nM

Each compound was assayed on SKBR3 cells express WT PI3Ka (assay: In vitro cell proliferation, SKBR3 cells (CellTiter-Glo)). Conditions: Homo sapiens, SK-BR-3, 72 h, inhibition of proliferation.
Assay type: cell-based
Summary of the method: as §1

Row | SMILES | EC50
33 | Cc1cc([C@@H](C)Nc2ccccc2C(=O)O)c2cc(N3CCN(c4cnn(C)c4)CC3)n(C)c(=O)c2c1 [Example 220] | > 15000 nM
34 | Cc1cc([C@@H](C)Nc2ccccc2C(=O)O)c2cc(N3CCN(c4ccccc4F)CC3)n(C)c(=O)c2c1 [Example 221] | > 15000 nM
35 | Cc1cc([C@@H](C)Nc2ccccc2C(=O)O)c2cc(NCc3ccc(F)cc3)n(C)c(=O)c2c1 [Example 222] | > 15000 nM
36 | Cc1cc([C@@H](C)Nc2ccccc2C(=O)O)c2cc(-c3cnc(C)cc3C)n(C)c(=O)c2c1 [Example 223] | > 15000 nM
37 | Cc1cc([C@@H](C)Nc2ccccc2C(=O)O)c2cc(-c3ccc(C(C)(C)F)nc3)n(C)c(=O)c2c1 [Example 225] | > 15000 nM
38 | Cc1cc([C@@H](C)Nc2ccccc2C(=O)O)c2cc(-c3ccc(C(C)C)nc3)n(C)c(=O)c2c1 [Example 226] | > 15000 nM
39 | Cc1cc([C@@H](C)Nc2ccccc2C(=O)O)c2cc(-c3ccc(C4CC4)nc3)n(C)c(=O)c2c1 [Example 227] | > 15000 nM
40 | Cc1cc([C@@H](C)Nc2ccccc2C(=O)O)c2cc(-c3ccc(C(C)(F)F)nc3)n(C)c(=O)c2c1 [Example 230] | > 15000 nM
41 | Cc1cc([C@@H](C)Nc2ccccc2C(=O)O)c2cc(N3CCN(c4cnn(C)n4)CC3)n(C)c(=O)c2c1 [Example 231] | 2000 to 15000 nM
42 | Cc1cc([C@@H](C)Nc2ccccc2C(=O)O)c2cc(N3CCN(c4ccn(C)n4)CC3)n(C)c(=O)c2c1 [Example 232] | 2000 to 15000 nM
43 | CNc1ccc(N2CCN(c3cc4c([C@@H](C)Nc5ccccc5C(=O)O)cc(C)cc4c(=O)n3C)CC2)cn1 [Example 233] | 2000 to 15000 nM
44 | COc1ncc(-c2cc3c([C@@H](C)Nc4ccccc4C(=O)O)cc(C)cc3c(=O)n2C)cn1 [Example 234] | > 15000 nM
45 | Cc1cc([C@@H](C)Nc2ccccc2C(=O)O)c2cc(N3CCN(c4cncnc4)CC3)n(C)c(=O)c2c1 [Example 235] | 2000 to 15000 nM
46 | Cc1cc([C@@H](C)Nc2ccccc2C(=O)O)c2cc(N3CCN(c4cncnc4C)CC3)n(C)c(=O)c2c1 [Example 236] | 2000 to 15000 nM
47 | Cc1cc([C@@H](C)Nc2ccccc2C(=O)O)c2cc(N3CCN(c4cnc(C)nc4)CC3)n(C)c(=O)c2c1 [Example 237] | 2000 to 15000 nM
48 | CCOc1ncc(-c2cc3c([C@@H](C)Nc4ccccc4C(=O)O)cc(C)cc3c(=O)n2C)cc1F [Example 238] | > 15000 nM

What follows are compounds tested on phosphorylation of AKT (pAKT) in SKBR3 cells express WT PI3Ka (assay: In vitro cell pAKT (Ser473) HTRF, SKBR3 cells). Conditions: Homo sapiens, SK-BR-3, 6 h, cellular pAKT.
Assay type: cell-based
Summary of the method: as §2

Row | SMILES | IC50
49 | Cc1cc([C@@H](C)Nc2ccccc2C(=O)O)c2cc(N3CCN(c4cnn(C)c4)CC3)n(C)c(=O)c2c1 [Example 220] | 2000 to 15000 nM
50 | Cc1cc([C@@H](C)Nc2ccccc2C(=O)O)c2cc(N3CCN(c4ccccc4F)CC3)n(C)c(=O)c2c1 [Example 221] | 2000 to 15000 nM
51 | Cc1cc([C@@H](C)Nc2ccccc2C(=O)O)c2cc(NCc3ccc(F)cc3)n(C)c(=O)c2c1 [Example 222] | > 15000 nM
52 | Cc1cc([C@@H](C)Nc2ccccc2C(=O)O)c2cc(-c3cnc(C)cc3C)n(C)c(=O)c2c1 [Example 223] | > 15000 nM
53 | Cc1cc([C@@H](C)Nc2ccccc2C(=O)O)c2cc(-c3ccc(C(C)(C)F)nc3)n(C)c(=O)c2c1 [Example 225] | > 15000 nM
54 | Cc1cc([C@@H](C)Nc2ccccc2C(=O)O)c2cc(-c3ccc(C(C)C)nc3)n(C)c(=O)c2c1 [Example 226] | > 15000 nM
55 | Cc1cc([C@@H](C)Nc2ccccc2C(=O)O)c2cc(-c3ccc(C4CC4)nc3)n(C)c(=O)c2c1 [Example 227] | > 15000 nM
56 | Cc1cc([C@@H](C)Nc2ccccc2C(=O)O)c2cc(-c3ccc(C(C)(F)F)nc3)n(C)c(=O)c2c1 [Example 230] | > 15000 nM
57 | Cc1cc([C@@H](C)Nc2ccccc2C(=O)O)c2cc(N3CCN(c4cnn(C)n4)CC3)n(C)c(=O)c2c1 [Example 231] | 2000 to 15000 nM
58 | Cc1cc([C@@H](C)Nc2ccccc2C(=O)O)c2cc(N3CCN(c4ccn(C)n4)CC3)n(C)c(=O)c2c1 [Example 232] | 2000 to 15000 nM
59 | CNc1ccc(N2CCN(c3cc4c([C@@H](C)Nc5ccccc5C(=O)O)cc(C)cc4c(=O)n3C)CC2)cn1 [Example 233] | 2000 to 15000 nM
60 | COc1ncc(-c2cc3c([C@@H](C)Nc4ccccc4C(=O)O)cc(C)cc3c(=O)n2C)cn1 [Example 234] | > 15000 nM
61 | Cc1cc([C@@H](C)Nc2ccccc2C(=O)O)c2cc(N3CCN(c4cncnc4)CC3)n(C)c(=O)c2c1 [Example 235] | 2000 to 15000 nM
62 | Cc1cc([C@@H](C)Nc2ccccc2C(=O)O)c2cc(N3CCN(c4cncnc4C)CC3)n(C)c(=O)c2c1 [Example 236] | 2000 to 15000 nM
63 | Cc1cc([C@@H](C)Nc2ccccc2C(=O)O)c2cc(N3CCN(c4cnc(C)nc4)CC3)n(C)c(=O)c2c1 [Example 237] | 2000 to 15000 nM
64 | CCOc1ncc(-c2cc3c([C@@H](C)Nc4ccccc4C(=O)O)cc(C)cc3c(=O)n2C)cc1F [Example 238] | > 15000 nM
